Measurements as given in patent publication US20210087337A1, “COMPOUNDS, COMPOSITIONS AND METHODS RELATED TO ANTIMICROBIAL APPLICATIONS” (VYOME THERAPEUTICS LIMITED, priority 2016, published 2021).
≈ marks a conversion by molar mass, not a printed value. Like-named read-outs stand apart in the source and are kept apart here. One block for each molecule: values may come before it.

Assays:
HaCat cell line = test: Cytotoxicity MTT assay; type: cell-based, human
Procedure: Different dilutions of compounds of the present disclosure in DMSO were used for the MTT assay so that the final concentration of DMSO in the assay was <5%. […] After 3 h incubation, MTT was removed and 100 μl of DMSO was added. Absorbance was measured in an ELISA reader at 570 nm. The assay controls were (a) medium control (medium without cells), (b) negative control (medium with cells but without the experimental compound), (iii) positive control (medium with cells and with 50 μM camptothecin). The experiment was done in triplicates and the data plotted as viability of cells in percentage.

[1] = test system: S. epidermidis ATCC 35984 biofilm; test: S. epidermidis biofilm disruption assay (MTT); type: cell-based; conditions: for EC50: Staphylococcus epidermidis, ATCC35984, read-out: Concentration (mg/ml) to disrupt 50% biofilm
Procedure: Materials: Brain heart infusion broth, S. epidermidis ATCC 35984, 96 well plates, Autoclave, Incubator, 0.05% MTT (3-(4,5-Dimethylthiazol-2-yl)-2,5-Diphenyltetrazolium Bromide) reagent prepared in water, Multiwell Plate Reader.
(§1) Method: S. epidermidis ATCC 35984 was grown in Brain Heart Infusion Agar (BHIA) at 37° C. for 24 h. The loop full of bacterial culture was suspended in sterile water and adjusted the turbidity to 0.1 OD at 600 nm in UV—Visual spectrophotometer (approximately 1.5×10^8) and further diluted (100 times with sterile BHI broth), 100 μL of culture suspension was added into 96 well plate and plates were incubated at 37° C. for 48 h for biofilm formation. The biofilm was washed twice with sterile water to remove the planktonic cells. Then biofilm was treated with 100 μL of BHI broth suspended with various concentrations of compounds of the present disclosure, and plates were further incubated at 37° C. for 24 h. The minimum biofilm disruption concentration (MBDC) was determined by staining the biofilm with MTT reagent incubated plates at 37° C. for 2 h. The precipitate was dissolved in 100 μl of dimethyl sulfoxide (DMSO) and the absorbance was measured at 600 nm in multi well plate reader. The minimum biofilm disruption concentration was calculated as subtracting the MTT OD value of drug treated with 48 h growth control.

[2] = test system: E. coli ATCC BAA196 biofilm; test: E. coli biofilm disruption assay (MTT); type: cell-based; conditions: for Minimum biofilm disruption concentration: 24 h biofilm, 24 h treatment, MTT
Procedure: Materials: Brain heart infusion broth+1% glucose, Escherichia coli ATCC BAA196, 96 wells plate, Autoclave, Incubator, MTT, Multiwell Plate Reader.
(§2) Method: E. coli ATCC BAA196 was grown in Brain Heart Infusion Agar (BHIA) at 37° C. for 24 h. The loop full of bacterial culture was suspended in sterile water and the turbidity to 0.1 OD at 600 nm in UV—Visual spectrophotometer (approximately 1.5×10^8) and further diluted (100 times with sterile BHI broth+1% glucose), 100 μL of culture suspension was added into 96 well plate and plates were incubated at 37° C. for 24 h for biofilm formation. The biofilm was washed twice with sterile water to remove the planktonic cells. Then biofilm was treated with 100 μL of BHI broth+1% glucose suspended with various concentrations of compounds of the present disclosure, and plates were further incubated at 37° C. for 24 h. The minimum biofilm disruption concentration (MBDC) was determined by staining the biofilm with MTT reagent incubated plates at 37° C. for 2 h, and the precipitate was dissolved in 100 μl of dimethyl sulfoxide (DMSO) and the absorbance was measured at 600 nm in multi well plate reader. The minimum biofilm disruption concentration was calculated by subtracting the MTT OD value of drug treated with 24 h growth control.

[3] = test system: biofilm formed by gram positive, gram negative pathogen; test: Biofilm disruption activity, general statement; type: cell-based; conditions: embodiment statement
Procedure: as §1, §2

[4] = test system: S. epidermidis (ATCC-35984); test: MIC by micro broth dilution (CLSI); type: cell-based
Procedure: (§3) Materials: Brain heart infusion broth, Bacterial and fungal cultures, 96 wells plate, Autoclave, Incubator. The microbial strains used in the validation study/testing were procured from MTCC (Chandigarh, India)—S. aureus (MTCC-6908), E. coli (MTCC-1687); NCIM (Pune, India)—E. aerogenes (NCIM-5139); ATCC (USA): S. aureus (ATCC-43300), S. epidermidis (ATCC-35984), P. aeruginosa (ATCC-27853), A. baumanii (ATCC-19606), K. pneumoniae (ATCC-13883), E. coli (ATCC-BAA196); CCARM (Korea)—Candida albicans (CCARM-14009), P. aeruginosa (CCARM-2161) and A. baumanii (CCARM-12001).
(§4) Method: MIC of present molecules were determined by micro broth dilution method as per the Clinical and Laboratory Standards Institute (CLSI) guidelines. Microbial strains were cultured in appropriate media [Brain Heart Infusion Agar (BHIA) for bacteria and Sabouraud dextrose broth (SDB) for Candida] at 37° C. for 24 hours. […] For inoculum, microbial culture turbidity was adjusted to 0.1 optical density (OD) at 600 nm in UV—Visual spectrophotometer (approximately 1.5×10^8 cells/ml) and further diluted (100 times with sterile media). Diluted culture suspension (100 μl) was added to each well except sterility control wells (column 12 of 96 well plate). Column 11 of 96 well plate was used as growth control and vehicle control. The plates were incubated at 37° C. for 24 h. The MIC of the test compounds were determined by observing the lowest concentration of test compound that prevented the visual bacterial growth.

S. aureus (MTCC-6908) = test: MIC by micro broth dilution (CLSI); type: cell-based
Procedure: as §3, §4

[5] = test system: Candida albicans (CCARM-14009); test: MIC by micro broth dilution (CLSI); type: cell-based; conditions: for MIC: C. albicans CCARM 14009
Procedure: as §3, §4

S. epidermidis S12-1 = test: MIC by micro broth dilution (CLSI); type: cell-based; conditions: Staphylococcus epidermidis, S121
E. aerogenes (NCIM-5139) = test: MIC by micro broth dilution (CLSI); type: cell-based
Procedure: as §3, §4

[6] = test system: A. baumannii [ATCC 19606]; test: MIC by micro broth dilution (CLSI); type: cell-based
Procedure: as §3, §4

E. coli (ATCC-BAA196) = test: MIC by micro broth dilution (CLSI); type: cell-based
Procedure: as §3, §4

E. coli (MTCC-1687) = test: MIC by micro broth dilution (CLSI); type: cell-based
Procedure: as §3, §4

[7] = test system: K. pneumoniae [ATCC 1388]; test: MIC by micro broth dilution (CLSI); type: cell-based
Procedure: as §3, §4

[8] = test system: P. aeruginosa (ATCC-27853); test: MIC by micro broth dilution (CLSI); type: cell-based
Procedure: as §3, §4

S. aureus (ATCC-43300) = test: MIC by micro broth dilution (CLSI); type: cell-based
Procedure: as §3, §4

E. coli = test: MIC test, text summary against E. coli (strain not stated); type: cell-based
Procedure: as §3
as §4, with “Column 11 of 96 well plate was used as growth control and vehicle control. The plates were incubated at 37° C. for 24 h.” left out

[9] = Water solubility as described; type: physicochemical
MRSA = test: MIC test, text summary against MRSA; type: cell-based, S. aureus
Procedure: as §3
as §4, with “Column 11 of 96 well plate was used as growth control and vehicle control. The plates were incubated at 37° C. for 24 h.” left out

[10] = test system: Bacterial and fungal cultures; test: MIC test, overall antimicrobial activity in words; type: cell-based; conditions: overall statement on MIC results
Procedure: as §3
as §4, with “Column 11 of 96 well plate was used as growth control and vehicle control. The plates were incubated at 37° C. for 24 h.” left out

Gram negative pathogens = test: MIC test, against Gram negative pathogens; type: cell-based
Procedure: as §3
as §4, with “Column 11 of 96 well plate was used as growth control and vehicle control. The plates were incubated at 37° C. for 24 h.” left out

Gram positive pathogen = test: MIC test, text summary against Gram positive pathogens; type: cell-based
Procedure: as §3
as §4, with “Column 11 of 96 well plate was used as growth control and vehicle control. The plates were incubated at 37° C. for 24 h.” left out

[11] = 48 h biofilm, 24 h treatment, MTT
[12] = Staphylococcus epidermidis, ATCC35984, read-out: MIC
[13] = Staphylococcus aureus, MTCC6908, read-out: MIC
[14] = Candida albicans, CCARM14009, read-out: MIC

Structure (SMILES): N=C(NCCCCCCNC(=N)NC(=N)Nc1ccc(Cl)cc1)NC(=N)Nc1ccc(Cl)cc1 [Chlorohexidine, reference compound]
IC50 in HaCat cell line (HaCat cell line; 48 h, MTT): ~200 µg/mL (≈ 396 µM)

Structure (SMILES): CC(=O)N[C@@H](CS)C(=O)O [NAC, N-acetyl cysteine, reference compound]
EC50 [1, 11]: > 4 mg/mL

Structure (SMILES): CCCCCCCCCCCCSC[C@@H](NC(C)=O)C(=O)N(CCCCNC(=O)[C@@H](N)CNC(=N)N)CCCNC(=O)[C@@H](N)CNC(=N)N.Cl [SMP-051]
MIC (E. aerogenes (NCIM-5139)): 8.0 µg/mL
MIC [4]: 1.6 µg/mL
MIC [6]: 128.0 µg/mL
MIC (E. coli (ATCC-BAA196)): 100 µg/mL
MIC (E. coli (MTCC-1687)): 1.6 µg/mL
MIC [7]: 8.0 µg/mL
MIC [8]: 16.0 µg/mL
MIC (S. aureus (MTCC-6908)): 6.25 µg/mL
MIC [5]: 200 µg/mL
MIC (S. aureus (ATCC-43300)): 6.25 µg/mL
disruption of E. coli biofilm [2]: the best
Minimum biofilm disruption concentration [2]: 0.25 to 0.5 mg/mL
IC50 in HaCat cell line (HaCat cell line; 48 h, MTT): ~25.0 µg/mL
biofilm disruption activity [3]: biofilm disruption activity
activity against Gram negative pathogens (Gram negative pathogens): very efficient
improvement of antibacterial activity in comparison to SMP-002 (Gram negative pathogens; against Gram negative pathogen): 100-150 fold
antimicrobial / antibacterial activity [10]: broad spectrum antibacterial activity
Concentration (mg/ml) to disrupt 50% biofilm [1, 11]: >2 mg/mL
improvement of antibacterial activity in comparison to SMP-002 (Gram positive pathogen): 10-20 fold

Continued, in another order:

EC50 [1, 11]: 0.02 to 0.125 mg/mL (≈ 60.3 to 377 µM)
Structure (SMILES): CCCCCCCCCCCCSC[C@H](NC(C)=O)C(=O)O [SMP-001, N-Acetyl-S-dodecyl-L-cysteine]
Minimum biofilm disruption concentration [2]: 0.5 to 2.0 mg/mL
biofilm disruption activity [3]: biofilm disruption activity
anti-biofilm activity against S. epidermidis [1]: destroy biofilm effectively

MIC [4, 12]: 8 to 13 µg/mL
MIC (S. aureus (MTCC-6908); [13]): 25 µg/mL
MIC [5, 14]: 100 µg/mL
MIC (S. epidermidis S12-1): 25 µg/mL
EC50 [1, 11]: 0.01 mg/mL
Structure (SMILES): CCCCCCCCCCCCSC[C@@H](NC(C)=O)C(=O)N(CCCN)CCCN.Cl.Cl [SMP-002, (S)-2-Acetamido-N,N-bis(3-aminopropyl)-3-(dodecylthio)propanamide di-hydrochloride]
Minimum biofilm disruption concentration [2]: 2 to 4 mg/mL
biofilm disruption activity [3]: biofilm disruption activity
anti-biofilm activity against S. epidermidis [1]: maintain anti-biofilm activity like SMP-001

MIC (E. aerogenes (NCIM-5139); Klebsiella aerogenes, NCIM5139, read-out: MIC): > 256 µg/mL
MIC [4, 12]: 6.25 µg/mL
MIC ([6]; Acinetobacter baumannii, ATCC19606, read-out: MIC): > 256 µg/mL
MIC (E. coli (ATCC-BAA196); Escherichia coli, ATCCBAA196, read-out: MIC): 100 µg/mL
MIC (E. coli (MTCC-1687); Escherichia coli, MTCC1687, read-out: MIC): 0.8 µg/mL
MIC ([7]; Klebsiella pneumoniae, ATCC1388, read-out: MIC): > 256 µg/mL
MIC ([8]; Pseudomonas aeruginosa, ATCC27853, read-out: MIC): > 256 µg/mL
MIC (S. aureus (MTCC-6908); [13]): 6.25 µg/mL
MIC [5, 14]: 50 µg/mL
MIC (S. aureus (ATCC-43300); Staphylococcus aureus, ATCC43300, read-out: MIC): 6.25 µg/mL
water solubility [9]: water soluble
MIC (S. epidermidis S12-1): 50 µg/mL
EC50 [1, 11]: > 2 mg/mL
Structure (SMILES): CCCCCCCCC/C=C\CCCCCCCCSC[C@@H](NC(C)=O)C(=O)N(CCCN)CCCN.Cl.Cl [SMP-047, (S,Z)-2-Acetamido-N,N-bis(3-aminopropyl)-3-(nonadec-9-en-1-ylthio)propanamide di-hydrochloride]
antifungal activity against Candida species [5]: potent antifungal activity
activity towards resistant E. coli (E. coli): potent
IC50 (HaCat cell line; Homo sapiens, HaCaT, 48 h, MTT): 200 to 400 µg/mL
safety profile in HaCaT cell lines (HaCat cell line; compared with PHMB and chlorohexidine): better safety profile
biofilm disruption activity [3]: biofilm disruption activity
antibacterial activity against MRSA (MRSA): potent antibacterial activity
antimicrobial / antibacterial activity [10]: broad spectrum antibacterial activity
